Experimental data: patent US10538487B2, “Sulfonylureas and related compounds and use of same” (priority 2015, dated 2020)

These compounds were tested against NLRP3 inflammasome (Homo sapiens, UniProt Q96P20) (assay: Inhibition of IL-1β release, NLRP3 inflammasome activation assay in HMDM). Conditions: commercial compounds (Table 9), read-out: HMDM IC50 vs NLRP3.
Assay type: cell-based
Method: The following assays can be used to determine inhibitory activity of test compounds on the NLRP3 inflammasome using common stimuli such as adenosine triphosphate, nigericin, LeuLeu-OMe or monosodium urate crystals (MSU).
To generate HMDM, human monocytes are isolated from buffy coat blood using Ficoll-Plaque Plus (GE Healthcare) and density centrifugation. CD14^+ cell selection is performed using MACS magnetic beads (Miltenyl Biotec).
HMDM are seeded at 1×10^5/ml. […] Medium is removed and replaced with serum free medium (SFM) containing test compound 30 min prior to NLRP3 stimulation. […] ATP can be sourced from Sigma Aldrich, nigericin and MSU from Invivogen and LeuLeu-Ome from Chem-Impex International.
For ELISA and cell death assays cells are seeded in 96 well plates. Supernatants are removed and analysed using ELISA kits according to the manufacturer's instructions (DuoSet® R&D Systems, ReadySetGo!® eBioscience, BD OptEIA™, or Perkin Elmer AlphaLISA®). Cell death is assessed by measurement of LDH release relative to a 100% cell lysis control using the CytoTox96® non-radioactive cytotoxicity assay (Promega).

NLRP3 inflammasome, sequence (Q96P20 whole entry): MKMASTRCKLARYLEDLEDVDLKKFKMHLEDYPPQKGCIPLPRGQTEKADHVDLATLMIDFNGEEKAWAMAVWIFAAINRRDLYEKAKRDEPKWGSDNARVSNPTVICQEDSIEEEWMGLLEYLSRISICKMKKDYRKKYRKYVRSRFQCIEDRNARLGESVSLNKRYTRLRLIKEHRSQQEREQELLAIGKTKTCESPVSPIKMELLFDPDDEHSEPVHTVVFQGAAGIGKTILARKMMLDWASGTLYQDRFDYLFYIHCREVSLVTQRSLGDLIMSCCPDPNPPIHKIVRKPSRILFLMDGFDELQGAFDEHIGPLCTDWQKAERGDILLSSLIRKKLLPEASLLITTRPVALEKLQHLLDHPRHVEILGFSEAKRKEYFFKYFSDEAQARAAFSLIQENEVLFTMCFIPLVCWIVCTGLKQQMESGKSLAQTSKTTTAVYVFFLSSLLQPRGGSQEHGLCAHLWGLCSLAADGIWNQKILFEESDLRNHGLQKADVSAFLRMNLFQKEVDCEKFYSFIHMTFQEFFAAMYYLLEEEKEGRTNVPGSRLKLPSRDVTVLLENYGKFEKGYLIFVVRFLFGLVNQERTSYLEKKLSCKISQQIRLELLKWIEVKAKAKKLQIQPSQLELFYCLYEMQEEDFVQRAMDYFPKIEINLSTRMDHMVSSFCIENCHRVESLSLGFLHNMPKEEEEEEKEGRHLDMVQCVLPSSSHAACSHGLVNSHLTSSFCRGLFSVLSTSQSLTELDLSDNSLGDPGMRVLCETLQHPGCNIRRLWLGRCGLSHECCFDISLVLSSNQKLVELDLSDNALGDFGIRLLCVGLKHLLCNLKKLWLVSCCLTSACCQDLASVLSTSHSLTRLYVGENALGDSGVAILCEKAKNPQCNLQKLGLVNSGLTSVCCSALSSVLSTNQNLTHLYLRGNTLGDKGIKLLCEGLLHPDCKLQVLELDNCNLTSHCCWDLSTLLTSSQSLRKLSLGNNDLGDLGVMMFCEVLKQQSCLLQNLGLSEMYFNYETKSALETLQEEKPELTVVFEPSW

SMILES	IC50 [nM]
Cc1ccc(S(=O)(=O)NC(=O)NN2CCCCCC2)cc1 [Tolazamide, reference compound]	> 200000

Same assay, conditions: inhibition of IL-1β release, class symbols, read-out: Avg. IL-1β IC50 HMDM

SMILES	IC50 [nM]
CC(C)n1nc(S(=O)(=O)NC(=O)Nc2c3c(cc4c2CCC4)CCC3)cc1C(F)(F)F [N-((1,2,3,5,6,7-hexahydro-s-indacen-4-yl)carbamoyl)-1-isopropyl-5-(trifluoromethyl)-1H-pyrazole-3-sulfonamide]	< 1000
Cn1nc(S(=O)(=O)NC(=O)Nc2c3c(cc4c2CCC4)CCC3)cc1C(F)(F)F [N-((1,2,3,5,6,7-hexahydro-s-indacen-4-yl)carbamoyl)-1-methyl-5-(trifluoromethyl)-1H-pyrazole-3-sulfonamide]	< 1000
O=C(Nc1c2c(cc3c1CCC3)CCC2)NS(=O)(=O)c1ccn(-c2ccccc2)n1 [N-((1,2,3,5,6,7-hexahydro-s-indacen-4-yl)carbamoyl)-1-phenyl-1H-pyrazole-3-sulfonamide]	< 1000
O=C(Nc1c2c(cc3c1CCC3)CCC2)NS(=O)(=O)c1ccc2c(c1)S(=O)(=O)CC2 [N-((1,2,3,5,6,7-hexahydro-s-indacen-4-yl)carbamoyl)-2,3-dihydrobenzo[b]thiophene-6-sulfonamide 1,1-dioxide]	< 1000
COc1ccccc1S(=O)(=O)NC(=O)Nc1c2c(cc3c1CCC3)CCC2 [N-((1,2,3,5,6,7-hexahydro-s-indacen-4-yl)carbamoyl)-2-methoxybenzenesulfonamide]	< 1000
CC(C)(O)c1cccc(S(=O)(=O)NC(=O)Nc2c3c(cc4c2CCC4)CCC3)c1 [N-((1,2,3,5,6,7-hexahydro-s-indacen-4-yl)carbamoyl)-3-(2-hydroxypropan-2-yl)benzenesulfonamide]	< 100
O=C(Nc1c2c(cc3c1CCC3)CCC2)NS(=O)(=O)c1cccc(-n2cc(-c3ccccc3)nn2)c1 [N-((1,2,3,5,6,7-hexahydro-s-indacen-4-yl)carbamoyl)-3-(4-phenyl-1H-1,2,3-triazol-1-yl)benzenesulfonamide]	< 10000
[2H]C([2H])([2H])C(O)(c1cc(S(=O)(=O)NC(=O)Nc2c3c(cc4c2CCC4)CCC3)oc1C)C([2H])([2H])[2H] [N-((1,2,3,5,6,7-hexahydro-s-indacen-4-yl)carbamoyl)-4-(2-hydroxypropan-2-yl-1,1,1,3,3,3-d6)-5-methylfuran-2-sulfonamide]	< 100
O=C(Nc1c2c(cc3c1CCC3)CCC2)NS(=O)(=O)c1cc(C(F)(F)F)ccn1 [N-((1,2,3,5,6,7-hexahydro-s-indacen-4-yl)carbamoyl)-4-(trifluoromethyl)pyridine-2-sulfonamide]	< 100
CC(C)c1cc(S(=O)(=O)NC(=O)Nc2c3c(cc4c2CCC4)CCC3)nn1C [N-((1,2,3,5,6,7-hexahydro-s-indacen-4-yl)carbamoyl)-5-isopropyl-1-methyl-1H-pyrazole-3-sulfonamide]	< 1000
O=C(Nc1c2c(cc3c1CCC3)CCC2)NS(=O)(=O)c1cnc2c(c1)CCC2 [N-((1,2,3,5,6,7-hexahydro-s-indacen-4-yl)carbamoyl)-6,7-dihydro-5H-cyclopenta[b]pyridine-3-sulfonamide]	< 100
O=C(Nc1c2c(cc3c1CCC3)CCC2)NS(=O)(=O)c1ccc2c(c1)OCO2 [N-((1,2,3,5,6,7-hexahydro-s-indacen-4-yl)carbamoyl)benzo[d][1,3]dioxole-5-sulfonamide]	< 1000
O=C(Nc1c2c(cc3c1CCC3)CCC2)NS(=O)(=O)c1cc2ccccc2o1 [N-((1,2,3,5,6,7-hexahydro-s-indacen-4-yl)carbamoyl)benzofuran-2-sulfonamide]	< 1000
O=C(Nc1c2c(cc3c1CCC3)CCC2)NS(=O)(=O)C1CCCCC1 [N-((1,2,3,5,6,7-hexahydro-s-indacen-4-yl)carbamoyl)cyclohexanesulfonamide]	< 10000
O=C(Nc1c2c(cc3c1CCC3)CCC2)NS(=O)(=O)C1CCCC1 [N-((1,2,3,5,6,7-hexahydro-s-indacen-4-yl)carbamoyl)cyclopentanesulfonamide]	< 10000
O=C(Nc1c2c(cc3c1CCC3)CCC2)NS(=O)(=O)N1CCOCC1 [N-((1,2,3,5,6,7-hexahydro-s-indacen-4-yl)carbamoyl)morpholine-4-sulfonamide]	< 10000
O=C(Nc1c2c(cc3c1CCC3)CCC2)NS(=O)(=O)c1cccc2cccnc12 [N-((1,2,3,5,6,7-hexahydro-s-indacen-4-yl)carbamoyl)quinoline-8-sulfonamide]	< 1000
O=C(Nc1c2c(cc3c1CCC3)CCC2)NS(=O)(=O)C1CCOCC1 [N-((1,2,3,5,6,7-hexahydro-s-indacen-4-yl)carbamoyl)tetrahydro-2H-pyran-4-sulfonamide]	< 1000
O=C(Nc1c2c(cc3c1CCC3)CCC2)NS(=O)(=O)C1CCOC1 (centres unmarked) [N-((1,2,3,5,6,7-hexahydro-s-indacen-4-yl)carbamoyl)tetrahydrofuran-3-sulfonamide]	< 10000

SMILES	IC50 [nM]
CC(C)(O)c1coc(S(=O)(=O)NC(=O)Nc2c3c(cc4c2CCC4O)CCC3)c1 (centres unmarked) [N-((1-hydroxy-1,2,3,5,6,7-hexahydro-s-indacen-4-yl)carbamoyl)-4-(2-hydroxypropan-2-yl)furan-2-sulfonamide]	< 10000
O=C(Nc1c2c(cc3c1OCC3)OCC2)NS(=O)(=O)c1cccc(C2(C(F)(F)F)N=N2)c1 [N-((2,3,6,7-tetrahydrobenzo[1,2-b:4,5-b′]difuran-4-yl)carbamoyl)-3-(3-(trifluoromethyl)-3H-diazirin-3-yl)benzenesulfonamide]	< 10000
CC(C)c1cccc(C(C)C)c1NC(=O)NS(=O)(=O)c1cc(C(F)(F)F)n(C)n1 [N-((2,6-diisopropylphenyl)carbamoyl)-1-methyl-5-(trifluoromethyl)-1H-pyrazole-3-sulfonamide]	< 10000
Cc1oc(S(=O)(=O)NC(=O)Nc2c(C(C)C)cccc2C(C)C)cc1C(C)(C)O [N-((2,6-diisopropylphenyl)carbamoyl)-4-(2-hydroxypropan-2-yl)-5-methylfuran-2-sulfonamide]	< 100
CC(C)(O)c1coc(S(=O)(=O)NC(=O)Nc2c3c(cc4c2C(O)CC4)CCC3)c1 (centres unmarked) [N-((3-hydroxy-1,2,3,5,6,7-hexahydro-s-indacen-4-yl)carbamoyl)-4-(2-hydroxypropan-2-yl)furan-2-sulfonamide]	< 1000
CC(C)(C)c1cc(C(C)(C)C)nc(NC(=O)NS(=O)(=O)c2cc(C(C)(C)O)co2)n1 [N-((4,6-di-tert-butylpyrimidin-2-yl)carbamoyl)-4-(2-hydroxypropan-2-yl)furan-2-sulfonamide]	< 50000
[2H]C([2H])([2H])C(O)(c1cc(S(=O)(=O)NC(=O)Nc2c3c(c(Br)c4c2OCC4)CCC3)oc1C)C([2H])([2H])[2H] [N-((4-bromo-3,5,6,7-tetrahydro-2H-indeno[5,6-b]furan-8-yl)carbamoyl)-4-(2-hydroxypropan-2-yl-1,1,1,3,3,3-d6)-5-methylfuran-2-sulfonamide]	< 100
CC(C)c1cc(Cl)cc(C(C)C)c1NC(=O)NS(=O)(=O)c1cccc2cnccc12 [N-((4-chloro-2,6-diisopropylphenyl)carbamoyl)isoquinoline-5-sulfonamide]	< 1000
CC(C)c1cc(Cl)cc(C(C)C)c1NC(=O)NS(=O)(=O)c1ccc2ccccc2c1 [N-((4-chloro-2,6-diisopropylphenyl)carbamoyl)naphthalene-2-sulfonamide]	< 10000
CC(C)c1cc(Cl)cc(C(C)C)c1NC(=O)NS(=O)(=O)c1cnc2ccccc2c1 [N-((4-chloro-2,6-diisopropylphenyl)carbamoyl)quinoline-3-sulfonamide]	< 100
CC(C)c1cc(Cl)cc(C(C)C)c1NC(=O)NS(=O)(=O)c1cccc2ncccc12 [N-((4-chloro-2,6-diisopropylphenyl)carbamoyl)quinoline-5-sulfonamide]	< 1000
CC(C)c1cc(Cl)cc(C(C)C)c1NC(=O)NS(=O)(=O)c1cccc2cccnc12 [N-((4-chloro-2,6-diisopropylphenyl)carbamoyl)quinoline-8-sulfonamide]	< 10000
Cc1cc(C2CC2)nc(NC(=O)NS(=O)(=O)c2cc(C(C)(C)O)co2)n1 [N-((4-cyclopropyl-6-methylpyrimidin-2-yl)carbamoyl)-4-(2-hydroxypropan-2-yl)furan-2-sulfonamide]	< 1000
COc1cc(NC(=O)NS(=O)(=O)c2cccc(C3(C(F)(F)F)N=N3)c2)c2ncccc2c1 [N-((6-methoxyquinolin-8-yl)carbamoyl)-3-(3-(trifluoromethyl)-3H-diazirin-3-yl)benzenesulfonamide]	< 50000
O=C(Nc1cccc2ncccc12)NS(=O)(=O)c1cccc(C2(C(F)(F)F)N=N2)c1 [N-(quinolin-5-ylcarbamoyl)-3-(3-(trifluoromethyl)-3H-diazirin-3-yl)benzenesulfonamide]	< 50000
O=C(Nc1cccc2cccnc12)NS(=O)(=O)c1cccc(C2(C(F)(F)F)N=N2)c1 [N-(quinolin-8-ylcarbamoyl)-3-(3-(trifluoromethyl)-3H-diazirin-3-yl)benzenesulfonamide]	< 10000
CN(C)S(=O)(=O)NC(=O)Nc1c2c(cc3c1CCC3)CCC2 [N-[1,2,3,5,6,7-hexahydro-s-indacen-4-yl]-N′-[(dimethylamino)sulfonyl]urea]	< 10000
CC(C)c1cc(Cl)cc(C(C)C)c1NC(=O)NS(=O)(=O)c1ccn(C(C)C)n1 [sodium ((4-chloro-2,6-diisopropylphenyl)carbamoyl)((1-isopropyl-1H-pyrazol-3-yl)sulfonyl)amide]	< 1000
